Several values for one entry are separate records, joined by “and”; a condition that tells them apart may be missing. Identical values can stand only once. Like-named read-outs stand apart in the source and are kept apart here.
What was measured:
T. hyodysenteriae [1] = test: Comparative efficacy of M139603 and lasalocid in experimentally infected mice (Example 4, Table 4); assay type: in vivo, mice (strain MF-1); details: for Mean (log10) viable treponemes per gram caecal contents / Viable treponemes per gram caecal contents: 5 days; for Mean (log10) viable treponemes per gram caecal contents: group mean (table); for Viable treponemes per gram caecal contents: individual mice
Text: (§1) The infection leads to varying degrees of caecitis, the lesions of which are apparent in animals killed on or about the sixth day post-infection. Caecal specimens examined by bacteriological culture techniques applicable for enumeration of organisms reveal the presence of high populations of T.hyodysenteriae. This disease-model was used in experiments to compare the efficacy of M139603 with that of salinomycin, lasalocid and monensin in suppressing the infection.
(§2) In this study, the efficacy of M139603 was tested at 25 ppm feed and that of monensin (Eli Lilly) at 50 or 100 ppm. Groups of infected mice, five per group, were offered the drugs in the feed on five continuous days before killing. Caecal materials were subjected to bacteriological examination to enumerate the populations of viable treponemes per gram of material. […] The group mean in respect of the unmedicated groups was 7.9 cfu/g.
In this study, the efficacy of M139603 was tested at 20 ppm feed and that of lasalocid (Hoffman la Roche) at 20, 40 and 80 ppm. The test procedures were similar to those above except for the size of the inoculum of T.hyodysenteriae (1.2×10^7 cfu) used in infecting each mouse. […] The mean (log10) counts of viable treponemes found in the caecal contents of the various groups were: 2.5 cfu/g caecum (139603 at 20 ppm), 7.35 cfu (lasalocid at 20 ppm), 7.45 cfu (lasalocid at 40 ppm), 3.81 cfu (lasalocid at 80 ppm) and 8.50 cfu (unmedicated control).

T. hyodysenteriae [2] = test: MIC of M139603 against thirteen T. hyodysenteriae isolates vs salinomycin and dimetridazole (Example 1, Table 1); assay type: cell-based, Treponema hyodysenteriae; details: Brachyspira hyodysenteriae
Protocol: The minimum inhibitory concentration of M139603 was tested in parallel with dimetridazole (May & Baker) and the growth-promoting polyether antibiotic salinomycin (Hoechst) against thirteen strains of T. hyodysenteriae.

T. hyodysenteriae [3] = test: Comparative efficacy of M139603 and salinomycin in experimentally infected mice (Example 3, Table 3); assay type: in vivo, mice (strain MF-1); details: for Mean (log10) viable treponemes per gram caecum & contents / Viable treponemes per gram caecum & contents: 5 days; for Mean (log10) viable treponemes per gram caecum & contents: group mean; for Viable treponemes per gram caecum & contents: individual mice
Text: as §1, §2
In this study, the efficacy of M139603 was tested at 30 ppm and that of salinomycin at 30, 40 or 60 ppm feed. The mouse-groups and test-procedureswere simi-ar to those applied under Example 2 above.

T. hyodysenteriae [4] = test: Comparative efficacy of M139603 and monensin in experimentally infected mice (Example 2, Table 2); assay type: in vivo, mice (strain MF-1); details: for Mean (log10) viable treponemes per gram caecum & contents / Viable treponemes per gram caecum & contents: 5 days; for Mean (log10) viable treponemes per gram caecum & contents: group mean; for Viable treponemes per gram caecum & contents: individual mice
Text: as §1, §2

In the case of `CC[C@@H](C(=O)[C@@H](C)[C@@H](O)[C@H](C)CCc1ccc(C)c(O)c1C(=O)O)[C@H]1O[C@](CC)([C@H]2CC[C@](O)(CC)[C@H](C)O2)C[C@@H]1C` [Lasalocid, lasalocid], the “Mean (log10) viable treponemes per gram caecal contents” value (T. hyodysenteriae [1]; 20 ppm feed) is reported as 7.35 log10 per gram, the “Viable treponemes per gram caecal contents” value (T. hyodysenteriae [1]; 20 ppm feed) is reported as 3.2 × 10^8 per gram and 1.1 × 10^4 per gram and 2.9 × 10^7 per gram and 1.7 × 10^8 per gram and the “Mean (log10) count of viable treponemes in caecal contents” value (from here on “Mean (log10) count of viable treponemes”) (T. hyodysenteriae [1]; 20 ppm feed) is reported as 7.35 cfu/g caecum. For the same compound, the “Mean (log10) viable treponemes per gram caecal contents” value (T. hyodysenteriae [1]; 40 ppm feed) was 7.45 log10 per gram, the “Viable treponemes per gram caecal contents” value (T. hyodysenteriae [1]; 40 ppm feed) was 3.0 × 10^ 6 per gram and 1.4 × 10^8 per gram and 2.1 × 10^8 per gram and 1.7 × 10^7 per gram and 1.2 × 10^7 per gram and the “Mean (log10) count of viable treponemes” value (T. hyodysenteriae [1]; 40 ppm feed) was 7.45 cfu/g caecum. The “Mean (log10) viable treponemes per gram caecal contents” value (T. hyodysenteriae [1]; 80 ppm feed) was 3.81 log10 per gram, the “Viable treponemes per gram caecal contents” value (T. hyodysenteriae [1]; 80 ppm feed) was 4.0 × 10^4 per gram and 0 per gram and 1.0 × 10^6 per gram and 1.3 × 10^5 per gram and 2.3 × 10^3 per gram and the “Mean (log10) count of viable treponemes” value (T. hyodysenteriae [1]; 80 ppm feed) was 3.81 cfu/g caecum.

Compound `CC[C@@H](C(=O)[C@@H](C)[C@@H](O)[C@H](C)[C@@H]1O[C@@H]([C@@H](CC)C(=O)O)CC[C@@H]1C)[C@H]1O[C@]2(C=C[C@@H](O)[C@]3(CC[C@@](C)([C@H]4CC[C@](O)(CC)[C@H](C)O4)O3)O2)[C@H](C)C[C@@H]1C` [Salinomycin, salinomycin] has an MIC (T. hyodysenteriae [2]; isolate B78) of 1 µg/mL, an MIC (T. hyodysenteriae [2]; isolate S82/6) of 0.75 µg/mL and an MIC (T. hyodysenteriae [2]; isolate S82/7) of 0.75 µg/mL. The MIC (T. hyodysenteriae [2]; isolate S83/1) was 0.75 µg/mL, the MIC (T. hyodysenteriae [2]; isolate S83/2) was 1 µg/mL and the MIC (T. hyodysenteriae [2]; isolate S83/5) was < 0.1 µg/mL. For the same compound, the MIC (T. hyodysenteriae [2]; isolate S85/1) was 0.75 µg/mL, the MIC (T. hyodysenteriae [2]; isolate S85/2) was 1 µg/mL and the MIC (T. hyodysenteriae [2]; isolate S85/3) was 0.75 µg/mL. The MIC (T. hyodysenteriae [2]; isolate S85/8) was 0.75 µg/mL, the MIC (T. hyodysenteriae [2]; isolate S85/9) was 0.5 µg/mL and the MIC (T. hyodysenteriae [2]; isolate S86/1) was < 0.1 µg/mL. For the same compound, the MIC (T. hyodysenteriae [2]; isolate S86/2) was 0.75 µg/mL, the MIC (T. hyodysenteriae [2]; read-out: Mean MIC, mean of 13 strains (table)) was 0.68 µg/mL and the Suppression of infection (T. hyodysenteriae [3]; 30, 40 or 60 ppm feed) was “failed to do so, even at 60 ppm”. For the same compound, the “Mean (log10) viable treponemes per gram caecum & contents” value (T. hyodysenteriae [3]; 30 ppm feed) was 3.86 log10 per gram, the “Viable treponemes per gram caecum & contents” value (T. hyodysenteriae [3]; 30 ppm feed) was “negative and 6.0 × 10^6 per gram and 5.4 × 10^5 per gram” and the “Mean (log10) viable treponemes per gram caecum & contents” value (T. hyodysenteriae [3]; 40 ppm feed) was 6.03 log10 per gram. For the same compound, the “Viable treponemes per gram caecum & contents” value (T. hyodysenteriae [3]; 40 ppm feed) was 6.0 × 10^6 per gram and 1.8 × 10^6 per gram and 1.6 × 10^5 per gram and 4.3 × 10^5 per gram, the “Mean (log10) viable treponemes per gram caecum & contents” value (T. hyodysenteriae [3]; 60 ppm feed) was 5.52 log10 per gram and the “Viable treponemes per gram caecum & contents” value (T. hyodysenteriae [3]; 60 ppm feed) was 1.3 × 10^7 per gram and 2.0 × 10^4 per gram and 1.0 × 10^6 per gram and 1.0 × 10^4 per gram and 1.5 × 10^6 per gram.

`CC[C@@]1([C@@H]2O[C@@H]([C@H]3O[C@@](O)(CO)[C@H](C)C[C@@H]3C)C[C@@H]2C)CC[C@H]([C@]2(C)CC[C@]3(C[C@H](O)[C@@H](C)[C@@H]([C@@H](C)[C@@H](OC)[C@H](C)C(=O)O)O3)O2)O1` [Monensin, monensin] was tested, and the “Animals yielding high populations of viable treponema” value (T. hyodysenteriae [4]; 50 ppm feed) was “four out of five”, the Suppression of infection (T. hyodysenteriae [4]; 50 ppm feed) was “ineffective” and the “Mean (log10) viable treponemes per gram caecum & contents” value (T. hyodysenteriae [4]; 50 ppm feed) was 5.2 log10 per gram. For the same compound, the “Viable treponemes per gram caecum & contents” value (T. hyodysenteriae [4]; 50 ppm feed) was 1.74 × 10^8 per gram and 2.90 × 10^7 per gram and 1.0 × 10^5 per gram and negative and 2.0 × 10^5 per gram, the “Populations of viable treponema (range)” value (T. hyodysenteriae [4]; 50 ppm feed, four of five animals) was 1.0×10^5 -1.7×10^8 cfu/g and the “Group mean (log10) viable treponema” value (T. hyodysenteriae [4]; 50 ppm feed, log10) was 5.2 cfu/g caecum. The Suppression of infection (T. hyodysenteriae [4]; 100 ppm feed) was “suppressed the infection”, the “Mean (log10) viable treponemes per gram caecum & contents” value (T. hyodysenteriae [4]; 100 ppm feed) was 0 log10 per gram and the “Viable treponemes per gram caecum & contents” value (T. hyodysenteriae [4]; 100 ppm feed, limit of detection <1.0 × 10^2) was “negative”.

Compound `Cc1ncc([N+](=O)[O-])n1C` [Dimetridazole, dimetridazole] has an MIC (T. hyodysenteriae [2]; isolate B78, read-out: MIC) of 3 µg/mL, an MIC (T. hyodysenteriae [2]; isolate S82/6, read-out: MIC) of 30 µg/mL and an MIC (T. hyodysenteriae [2]; isolate S82/7, read-out: MIC) of 30 µg/mL. It also gave an MIC (T. hyodysenteriae [2]; isolate S83/1, read-out: MIC) of 30 µg/mL, an MIC (T. hyodysenteriae [2]; isolate S83/2, read-out: MIC) of 3 µg/mL and an MIC (T. hyodysenteriae [2]; isolate S83/5, read-out: MIC) of 3 µg/mL. The MIC (T. hyodysenteriae [2]; isolate S85/1, read-out: MIC) was 30 µg/mL, the MIC (T. hyodysenteriae [2]; isolate S85/2, read-out: MIC) was 10 µg/mL and the MIC (T. hyodysenteriae [2]; isolate S85/3, read-out: MIC) was 10 µg/mL. For the same compound, the MIC (T. hyodysenteriae [2]; isolate S85/8, read-out: MIC) was 3 µg/mL, the MIC (T. hyodysenteriae [2]; isolate S85/9, read-out: MIC) was 5 µg/mL and the MIC (T. hyodysenteriae [2]; isolate S86/1, read-out: MIC) was < 0.5 µg/mL. The MIC (T. hyodysenteriae [2]; isolate S86/2, read-out: MIC) was 10 µg/mL and the MIC (T. hyodysenteriae [2]; mean of 13 strains (table), read-out: Mean MIC) was 12.9 µg/mL.

Source: US4999374A, “Veterinary treatment” (priority 1987, dated 1991)
